Source: the supplement of paper PMC10307832

What was measured:
Assay in all cases: relative viability (nuclei count vs DMSO), 5 days (fraction); higher = more cells survive
[1] = system: EMC-BAC-2
Summary of the method: (§1)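 Each reported value is a median over duplicate plates. It expresses relative viability: treated-well nuclei count divided by vehicle-well nuclei count. Lung cancer cell lines in 1536-well plates were dosed by pin tool a day after seeding, alone with one drug or with a fixed anchor-drug dose plus five library-drug doses (not always all listed) in √10 steps, and nuclei were counted after 5 days.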

[2] = system: NCI-H838
Summary of the method: as §1

[3] = system: NCI-H2023
Summary of the method: as §1

[4] = system: 201T
Summary of the method: as §1

[5] = system: LCLC-103H
Summary of the method: as §1

[6] = system: NCI-H2126
Summary of the method: as §1

[7] = system: LOU-NH91
Summary of the method: as §1

[8] = system: NCI-H1395
Summary of the method: as §1

[9] = system: NCI-H441
Summary of the method: as §1

[10] = system: NCI-H2347
Summary of the method: as §1

[11] = system: NCI-H727
Summary of the method: as §1

[12] = system: BEN
Summary of the method: as §1

[13] = system: NCI-H23
Summary of the method: as §1

[14] = system: NCI-H650
Summary of the method: as §1

[15] = system: HCC-44
Summary of the method: as §1

[16] = system: NCI-H2087
Summary of the method: as §1

[17] = system: HARA
Summary of the method: as §1

[18] = system: NCI-H1993
Summary of the method: as §1

[19] = system: NCI-H3122
Summary of the method: as §1

[20] = system: NCI-H596
Summary of the method: as §1

[21] = system: NCI-H647
Summary of the method: as §1

## CC(=O)O[C@@]12CO[C@@H]1C[C@H](O)[C@@]1(C)C(=O)[C@H](O)C3=C(C)[C@@H](OC(=O)[C@H](O)[C@@H](NC(=O)OC(C)(C)C)c4ccccc4)C[C@@](O)([C@@H](OC(=O)c4ccccc4)[C@H]21)C3(C)C [Docetaxel] + CS(=O)(=O)N1CCN(Cc2cc3nc(-c4cccc5[nH]ncc45)nc(N4CCOCC4)c3s2)CC1 [Pictilisib] (partner 1 µM)
[1]; first compound 0.0002 µM
  relative viability: 0.555
[1]; first compound 0.000632 µM
  relative viability: 0.469
[1]; first compound 0.002 µM
  relative viability: 0.324
[1]; first compound 0.006325 µM
  relative viability: 0.271
[1]; first compound 0.02 µM
  relative viability: 0.207
[2]; first compound 0.0002 µM
  relative viability: 0.477
[2]; first compound 0.000632 µM
  relative viability: 0.473
[2]; first compound 0.002 µM
  relative viability: 0.276
[2]; first compound 0.006325 µM
  relative viability: 0.149
[2]; first compound 0.02 µM
  relative viability: 0.116
[3]; first compound 0.0002 µM
  relative viability: 0.213
[3]; first compound 0.000632 µM
  relative viability: 0.188
[3]; first compound 0.002 µM
  relative viability: 0.142
[3]; first compound 0.006325 µM
  relative viability: 0.11
[3]; first compound 0.02 µM
  relative viability: 0.0766
[4]; first compound 0.0002 µM
  relative viability: 0.683
[4]; first compound 0.000632 µM
  relative viability: 0.672
[4]; first compound 0.002 µM
  relative viability: 0.557
[4]; first compound 0.006325 µM
  relative viability: 0.567
[4]; first compound 0.02 µM
  relative viability: 0.289
[5]; first compound 0.0002 µM
  relative viability: 0.537
[5]; first compound 0.000632 µM
  relative viability: 0.514
[5]; first compound 0.002 µM
  relative viability: 0.612
[5]; first compound 0.006325 µM
  relative viability: 0.455
[5]; first compound 0.02 µM
  relative viability: 0.251
[6]; first compound 0.0002 µM
  relative viability: 0.518
[6]; first compound 0.000632 µM
  relative viability: 0.541
[6]; first compound 0.002 µM
  relative viability: 0.393
[6]; first compound 0.006325 µM
  relative viability: 0.362
[6]; first compound 0.02 µM
  relative viability: 0.257
[7]; first compound 0.0002 µM
  relative viability: 0.524
[7]; first compound 0.000632 µM
  relative viability: 0.491
[7]; first compound 0.002 µM
  relative viability: 0.38
[7]; first compound 0.006325 µM
  relative viability: 0.318
[7]; first compound 0.02 µM
  relative viability: 0.339
[8]; first compound 0.0002 µM
  relative viability: 0.53
[8]; first compound 0.000632 µM
  relative viability: 0.617
[8]; first compound 0.002 µM
  relative viability: 0.543
[8]; first compound 0.006325 µM
  relative viability: 0.382
[8]; first compound 0.02 µM
  relative viability: 0.384
[9]; first compound 0.0002 µM
  relative viability: 0.352
[9]; first compound 0.000632 µM
  relative viability: 0.32
[9]; first compound 0.002 µM
  relative viability: 0.198
[9]; first compound 0.006325 µM
  relative viability: 0.177
[9]; first compound 0.02 µM
  relative viability: 0.11
[10]; first compound 0.0002 µM
  relative viability: 0.462
[10]; first compound 0.000632 µM
  relative viability: 0.564
[10]; first compound 0.002 µM
  relative viability: 0.696
[10]; first compound 0.006325 µM
  relative viability: 0.647
[10]; first compound 0.02 µM
  relative viability: 0.066
[11]; first compound 0.0002 µM
  relative viability: 0.309
[11]; first compound 0.000632 µM
  relative viability: 0.4
[11]; first compound 0.002 µM
  relative viability: 0.255
[11]; first compound 0.006325 µM
  relative viability: 0.213
[11]; first compound 0.02 µM
  relative viability: 0.182
[12]; first compound 0.0002 µM
  relative viability: 0.479
[12]; first compound 0.000632 µM
  relative viability: 0.504
[12]; first compound 0.006325 µM
  relative viability: 0.23
[12]; first compound 0.02 µM
  relative viability: 0.169
[13]; first compound 0.0002 µM
  relative viability: 0.499
[13]; first compound 0.000632 µM
  relative viability: 0.403
[13]; first compound 0.002 µM
  relative viability: 0.248
[13]; first compound 0.006325 µM
  relative viability: 0.185
[13]; first compound 0.02 µM
  relative viability: 0.144
[14]; first compound 0.0002 µM
  relative viability: 0.75
[14]; first compound 0.000632 µM
  relative viability: 0.48
[14]; first compound 0.002 µM
  relative viability: 0.313
[14]; first compound 0.006325 µM
  relative viability: 0.274
[14]; first compound 0.02 µM
  relative viability: 0.207
[15]; first compound 0.0002 µM
  relative viability: 0.406
[15]; first compound 0.000632 µM
  relative viability: 0.44
[15]; first compound 0.002 µM
  relative viability: 0.421
[15]; first compound 0.006325 µM
  relative viability: 0.144
[15]; first compound 0.02 µM
  relative viability: 0.0949
[16]; first compound 0.0002 µM
  relative viability: 0.841
[16]; first compound 0.000632 µM
  relative viability: 0.631
[16]; first compound 0.002 µM
  relative viability: 0.284
[16]; first compound 0.006325 µM
  relative viability: 0.34
[16]; first compound 0.02 µM
  relative viability: 0.193
[17]; first compound 0.0002 µM
  relative viability: 0.211
[17]; first compound 0.000632 µM
  relative viability: 0.159
[17]; first compound 0.002 µM
  relative viability: 0.126
[17]; first compound 0.006325 µM
  relative viability: 0.0701
[17]; first compound 0.02 µM
  relative viability: 0.0659
[18]; first compound 0.0002 µM
  relative viability: 0.746
[18]; first compound 0.000632 µM
  relative viability: 0.706
[18]; first compound 0.002 µM
  relative viability: 0.729
[18]; first compound 0.006325 µM
  relative viability: 0.682
[18]; first compound 0.02 µM
  relative viability: 0.545
[19]; first compound 0.0002 µM
  relative viability: 0.567
[19]; first compound 0.000632 µM
  relative viability: 0.577
[19]; first compound 0.002 µM
  relative viability: 0.396
[19]; first compound 0.006325 µM
  relative viability: 0.217
[19]; first compound 0.02 µM
  relative viability: 0.172
[20]; first compound 0.0002 µM
  relative viability: 0.405
[20]; first compound 0.000632 µM
  relative viability: 0.252
[20]; first compound 0.002 µM
  relative viability: 0.452
[20]; first compound 0.006325 µM
  relative viability: 0.297
[20]; first compound 0.02 µM
  relative viability: 0.256
[21]; first compound 0.0002 µM
  relative viability: 0.293
[21]; first compound 0.000632 µM
  relative viability: 0.206
[21]; first compound 0.002 µM
  relative viability: 0.138
[21]; first compound 0.006325 µM
  relative viability: 0.117
[21]; first compound 0.02 µM
  relative viability: 0.0727
